According to publication PMC12405493, “Selective ubiquitination of drug-like small molecules by the ubiquitin ligase HUWE1” (Nature Communications, 2025):

How the values were obtained:
HUWE1^HECT [1] = target: T1, HUWE1^HECT (Homo sapiens, UniProt Q7Z6Z7); test: HUWE1^HECT multi-turnover ubiquitination reactions (fluorescent Ub tracer, SDS-PAGE); type: biochemical; conditions: E2 UBE2L3, varying concentrations
T1 construct: the isolated HECT domain of HUWE1 (HUWE1^HECT); made in house
T1 sequence (Q7Z6Z7 4038-4374 limits assumed): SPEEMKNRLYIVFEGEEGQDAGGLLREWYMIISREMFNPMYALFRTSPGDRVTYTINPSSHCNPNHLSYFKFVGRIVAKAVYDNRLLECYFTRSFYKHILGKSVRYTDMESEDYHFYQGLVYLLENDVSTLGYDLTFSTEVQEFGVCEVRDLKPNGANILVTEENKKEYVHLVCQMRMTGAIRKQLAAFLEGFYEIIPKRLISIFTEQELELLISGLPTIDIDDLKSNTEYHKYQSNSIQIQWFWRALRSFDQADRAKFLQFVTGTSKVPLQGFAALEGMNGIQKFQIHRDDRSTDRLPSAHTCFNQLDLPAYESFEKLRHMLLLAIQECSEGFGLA
Method: (§1) HUWE1^HECT multi-turnover ubiquitination reactions were performed for 30 minutes (unless stated otherwise) with 200 nM UBA1, 5 μM UBE2L3 or UBE2D3 (as specified), 1 μM HUWE1^HECT and 30 μM Ub in 25 mM HEPES (pH 7.5), 100 mM NaCl, 3 mM MgCl2, and 0.5 mM TCEP. HUWE1^FL multi-turnover ubiquitination reactions included 50 nM UBA1, 2.5 μM UBE2L3, 0.05 μM HUWE1^FL, 0.5 μM MCL1 (or 0.5 μM H2B or 1 μM FOXP3) and 20 μM Ub in 20 mM HEPES (pH 7.5), 100 mM NaCl, 3 mM MgCl2, and 0.5 mM TCEP. All multi-turnover reactions were started by the addition of 1 mM ATP, incubated at 30 °C, quenched with SDS-loading dye. If not stated otherwise, HUWE1^FLautoubiquitination reactions were incubated for 20 minutes. Substrate ubiquitination reactions with MCL1 or H2B were incubated for 10 and 20 min, respectively; those with FOXP3 for 30 min. Those reactions that were monitored by fluorescence contained a fluorescent Ub tracer (IRDye 800CW maleimide; LI-COR)[55] and were monitored using an Odyssey CLx scanner (LI-COR), followed by Coomassie staining. In the fluorescence images, only those marker bands are labeled (in kDa) that are visible by fluorescence; all marker bands are labeled in the Coomassie-stained images. Statistical analyses were performed with Prism 9 v.9.3.1 (GraphPad).

HUWE1^HECT [2] = target: T2, HUWE1^HECT (Homo sapiens, UniProt Q7Z6Z7); test: Analytical SEC / intact protein MS of HUWE1^HECT-driven compound ubiquitination; type: biochemical; conditions: for Compound ubiquitination by HUWE1^HECT (SEC, intact protein MS): + ATP, WT Ub; for Inhibitor ubiquitination activity of HUWE1^HECT compared with other HECT domains: SEC, monoubiquitinated compound, HUWE1^HECT signal normalized to 1
T2 construct: the isolated HECT domain of HUWE1 (HUWE1^HECT); made in house
T2 sequence (Q7Z6Z7 3993-4374): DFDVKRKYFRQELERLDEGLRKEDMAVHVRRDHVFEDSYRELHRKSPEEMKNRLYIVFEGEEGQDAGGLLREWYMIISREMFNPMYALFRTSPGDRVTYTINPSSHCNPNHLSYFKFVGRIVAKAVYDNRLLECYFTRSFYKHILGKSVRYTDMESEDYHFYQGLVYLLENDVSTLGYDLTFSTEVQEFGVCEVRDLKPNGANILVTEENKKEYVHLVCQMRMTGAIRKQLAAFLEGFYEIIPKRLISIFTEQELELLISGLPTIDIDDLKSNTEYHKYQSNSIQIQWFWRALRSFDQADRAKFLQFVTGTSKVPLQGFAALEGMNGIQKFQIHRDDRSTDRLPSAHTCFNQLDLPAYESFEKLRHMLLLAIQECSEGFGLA
Method: HUWE1^HECT multi-turnover ubiquitination reactions were performed with 500 nM UBA1, 5 μM UBE2L3, 5 μM HUWE1^HECT and 100 μM Ub in 20 mM HEPES (pH 7.5), 100 mM NaCl and 0.5 mM TCEP in the presence of 1 mM ATP and 3 mM MgCl2. After 15 min incubation at 30 °C, the mixture was injected into a Superdex 75 Increase 3.2/300 column (Cytiva), equilibrated in 25 mM HEPES (pH 7.5), 100 mM NaCl, and 0.5 mM TCEP at 4 °C. Chromatograms were analyzed and peaks integrated with Unicorn v.7.9.02440 (Cytiva). Data were plotted with Prism v.9.3.1 (GraphPad).
Intact protein LC/MS: protein molecular weights (MWs) were determined by LC/MS on a nanoflow chromatography system (Dionex U3000 nanoRSLC), hyphenated to a hybrid quadrupole/orbitrap mass spectrometer (Q Exactive HF) with a NanoFlex ion source and controlled by Xcalibur v.2.4 (all Thermo Fisher Scientific). Proteins were dissolved in 2% (v/v) acetonitrile (ACN), 0.1% (v/v) formic acid (FA) to a concentration of 100 fmol μL^−1. For each analysis, 500 fmol were enriched on a pre-column (0.15 ×20 mm, Reprosil-Pur120 C18-AQ 5 μm; Dr. Maisch GmbH) and separated on an analytical RP-C18 column (0.075 mm×200 mm, Reprosil-Pur 120 C18-AQ; 1.9 μm, Dr. Maisch GmbH), using a 23-min linear gradient of 10–80% (v/v) ACN/0.1% (v/v) FA at 300 nl min^−1. MS data were acquired in full MS mode across the 500–1800 m/z-range at a resolution setting of 120,000 FWHM, an AGC target of 1*10e6 and a maximum fill time of 200 ms. Charge state deconvolution and MW representation were performed in Freestyle v.1.9 (Thermo Fisher Scientific), using default settings for high-resolution data.

[3] = test system: HECT domains of E6AP (UBE3A), HACE1, NEDD4, and UBE3C; test: Analytical SEC of compound ubiquitination by other HECT domains; type: biochemical, human
HUWE1^FL = target: T3, HUWE1^FL (Homo sapiens, UniProt Q7Z6Z7); test: HUWE1^FL multi-turnover ubiquitination reactions without protein substrate (autoubiquitination, free Ub chains); type: biochemical; conditions: without protein substrate; varying concentrations
T3 construct: made in house; host or cells: HEK293T (transient transfection, anti-Flag purification, SEC)
T3 sequence (Q7Z6Z7 whole entry): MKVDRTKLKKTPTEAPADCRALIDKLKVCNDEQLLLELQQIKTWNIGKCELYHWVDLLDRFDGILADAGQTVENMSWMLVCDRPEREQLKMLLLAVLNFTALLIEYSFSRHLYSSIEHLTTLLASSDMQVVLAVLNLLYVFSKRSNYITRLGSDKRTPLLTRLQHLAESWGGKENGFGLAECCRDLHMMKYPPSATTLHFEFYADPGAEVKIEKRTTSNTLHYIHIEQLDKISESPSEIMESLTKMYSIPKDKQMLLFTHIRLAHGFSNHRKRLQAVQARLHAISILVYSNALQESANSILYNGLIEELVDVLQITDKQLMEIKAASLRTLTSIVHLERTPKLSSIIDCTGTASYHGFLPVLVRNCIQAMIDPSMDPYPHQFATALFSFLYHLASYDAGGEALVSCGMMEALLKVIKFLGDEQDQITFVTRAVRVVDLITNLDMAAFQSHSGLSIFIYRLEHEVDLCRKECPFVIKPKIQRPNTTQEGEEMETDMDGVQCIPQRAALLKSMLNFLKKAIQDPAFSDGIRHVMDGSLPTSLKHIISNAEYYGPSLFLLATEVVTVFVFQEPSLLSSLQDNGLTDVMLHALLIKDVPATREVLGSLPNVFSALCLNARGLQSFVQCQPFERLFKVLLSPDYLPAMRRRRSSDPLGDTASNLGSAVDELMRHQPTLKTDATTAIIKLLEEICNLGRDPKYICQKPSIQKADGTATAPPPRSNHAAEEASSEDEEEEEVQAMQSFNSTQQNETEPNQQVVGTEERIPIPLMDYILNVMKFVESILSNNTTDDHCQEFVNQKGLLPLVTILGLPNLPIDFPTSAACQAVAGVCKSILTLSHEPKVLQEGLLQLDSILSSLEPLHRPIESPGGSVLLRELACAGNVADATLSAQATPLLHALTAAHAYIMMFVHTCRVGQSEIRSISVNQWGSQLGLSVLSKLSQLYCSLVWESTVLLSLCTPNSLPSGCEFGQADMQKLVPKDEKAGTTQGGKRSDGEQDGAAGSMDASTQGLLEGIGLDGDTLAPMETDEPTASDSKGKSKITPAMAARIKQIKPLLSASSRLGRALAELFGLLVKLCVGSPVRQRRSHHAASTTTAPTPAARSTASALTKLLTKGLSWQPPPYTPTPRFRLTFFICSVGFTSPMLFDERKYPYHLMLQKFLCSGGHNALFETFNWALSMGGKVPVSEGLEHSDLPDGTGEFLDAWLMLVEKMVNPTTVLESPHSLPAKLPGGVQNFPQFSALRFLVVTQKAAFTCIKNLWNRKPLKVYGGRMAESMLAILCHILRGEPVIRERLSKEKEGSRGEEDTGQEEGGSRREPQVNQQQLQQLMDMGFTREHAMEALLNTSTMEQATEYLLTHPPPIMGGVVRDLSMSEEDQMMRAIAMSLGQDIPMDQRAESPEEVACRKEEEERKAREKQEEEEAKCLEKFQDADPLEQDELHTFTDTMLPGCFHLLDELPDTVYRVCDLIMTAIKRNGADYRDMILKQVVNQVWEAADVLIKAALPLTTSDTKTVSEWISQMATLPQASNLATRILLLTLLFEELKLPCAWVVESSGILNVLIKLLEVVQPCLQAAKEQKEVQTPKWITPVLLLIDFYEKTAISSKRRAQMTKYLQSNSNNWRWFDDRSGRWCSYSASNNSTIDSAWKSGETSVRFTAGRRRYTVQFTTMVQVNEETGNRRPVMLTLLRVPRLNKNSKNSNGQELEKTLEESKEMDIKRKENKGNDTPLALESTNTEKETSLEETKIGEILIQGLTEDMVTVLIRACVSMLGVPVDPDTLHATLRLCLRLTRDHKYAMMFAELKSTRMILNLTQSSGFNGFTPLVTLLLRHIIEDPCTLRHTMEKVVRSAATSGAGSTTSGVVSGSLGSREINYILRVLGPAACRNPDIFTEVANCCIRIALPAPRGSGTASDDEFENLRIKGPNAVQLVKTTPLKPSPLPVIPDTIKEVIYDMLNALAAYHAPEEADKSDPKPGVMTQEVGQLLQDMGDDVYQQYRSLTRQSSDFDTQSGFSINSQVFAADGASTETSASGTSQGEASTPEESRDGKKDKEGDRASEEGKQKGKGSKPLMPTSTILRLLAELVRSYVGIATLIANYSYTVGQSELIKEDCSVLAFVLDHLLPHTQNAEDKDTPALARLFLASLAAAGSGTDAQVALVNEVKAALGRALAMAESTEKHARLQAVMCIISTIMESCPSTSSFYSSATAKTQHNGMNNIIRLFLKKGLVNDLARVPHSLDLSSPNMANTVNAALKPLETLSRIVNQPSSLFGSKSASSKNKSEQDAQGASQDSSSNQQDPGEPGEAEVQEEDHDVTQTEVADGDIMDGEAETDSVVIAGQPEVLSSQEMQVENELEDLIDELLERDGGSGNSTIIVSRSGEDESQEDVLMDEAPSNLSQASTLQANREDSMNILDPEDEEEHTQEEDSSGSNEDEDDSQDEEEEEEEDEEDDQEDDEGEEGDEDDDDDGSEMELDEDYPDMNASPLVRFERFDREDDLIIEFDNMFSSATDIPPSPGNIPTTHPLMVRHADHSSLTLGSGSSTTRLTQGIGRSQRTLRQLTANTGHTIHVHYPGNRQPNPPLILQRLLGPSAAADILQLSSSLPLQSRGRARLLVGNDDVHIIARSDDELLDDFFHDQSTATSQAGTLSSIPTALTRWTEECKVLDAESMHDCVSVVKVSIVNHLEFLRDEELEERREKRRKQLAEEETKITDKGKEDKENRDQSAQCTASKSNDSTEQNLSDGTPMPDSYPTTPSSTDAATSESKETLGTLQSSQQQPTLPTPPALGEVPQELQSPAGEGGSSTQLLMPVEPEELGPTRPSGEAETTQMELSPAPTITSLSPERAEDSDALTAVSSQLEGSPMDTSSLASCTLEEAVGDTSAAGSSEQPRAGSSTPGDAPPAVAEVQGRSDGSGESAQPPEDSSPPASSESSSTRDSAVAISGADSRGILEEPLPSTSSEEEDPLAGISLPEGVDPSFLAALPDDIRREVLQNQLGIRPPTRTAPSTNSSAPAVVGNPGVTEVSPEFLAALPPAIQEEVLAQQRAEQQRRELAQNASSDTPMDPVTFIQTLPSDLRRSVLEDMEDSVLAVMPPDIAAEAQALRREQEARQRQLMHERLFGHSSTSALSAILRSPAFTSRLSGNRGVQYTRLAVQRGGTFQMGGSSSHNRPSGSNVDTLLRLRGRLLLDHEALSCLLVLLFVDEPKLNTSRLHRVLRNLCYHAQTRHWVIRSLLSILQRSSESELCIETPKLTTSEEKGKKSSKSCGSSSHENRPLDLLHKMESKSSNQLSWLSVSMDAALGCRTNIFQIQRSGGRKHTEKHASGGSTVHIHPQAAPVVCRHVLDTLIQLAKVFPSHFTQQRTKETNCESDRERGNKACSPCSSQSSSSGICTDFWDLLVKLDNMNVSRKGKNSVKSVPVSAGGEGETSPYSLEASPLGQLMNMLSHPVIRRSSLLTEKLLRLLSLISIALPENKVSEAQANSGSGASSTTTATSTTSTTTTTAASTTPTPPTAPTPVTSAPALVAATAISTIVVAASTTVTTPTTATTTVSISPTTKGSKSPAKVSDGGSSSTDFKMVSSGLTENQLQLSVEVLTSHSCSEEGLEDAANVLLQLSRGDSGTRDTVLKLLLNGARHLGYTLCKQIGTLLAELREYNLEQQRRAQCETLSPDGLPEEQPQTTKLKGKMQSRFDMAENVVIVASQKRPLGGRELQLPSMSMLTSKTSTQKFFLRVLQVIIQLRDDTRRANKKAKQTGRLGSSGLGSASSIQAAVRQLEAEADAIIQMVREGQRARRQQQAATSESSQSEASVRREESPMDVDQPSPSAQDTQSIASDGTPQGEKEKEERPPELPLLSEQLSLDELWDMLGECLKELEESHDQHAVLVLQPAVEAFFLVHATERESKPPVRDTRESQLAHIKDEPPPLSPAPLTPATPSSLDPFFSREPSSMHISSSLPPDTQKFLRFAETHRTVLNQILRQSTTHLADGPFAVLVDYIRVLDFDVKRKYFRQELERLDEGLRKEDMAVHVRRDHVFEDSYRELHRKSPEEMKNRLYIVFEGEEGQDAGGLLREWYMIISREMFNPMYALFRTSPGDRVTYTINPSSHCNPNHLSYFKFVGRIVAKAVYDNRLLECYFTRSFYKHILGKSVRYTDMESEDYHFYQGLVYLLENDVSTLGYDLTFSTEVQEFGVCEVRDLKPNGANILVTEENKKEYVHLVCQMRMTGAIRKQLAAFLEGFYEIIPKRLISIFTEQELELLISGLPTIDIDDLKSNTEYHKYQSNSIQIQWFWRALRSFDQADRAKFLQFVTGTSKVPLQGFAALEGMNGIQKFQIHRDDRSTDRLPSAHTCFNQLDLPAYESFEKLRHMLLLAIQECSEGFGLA
Method: as §1

[4] = target: T4, HUWE1^FL (substrate MCL1) (Homo sapiens, UniProt Q7Z6Z7); test: HUWE1^FL-driven MCL1 ubiquitination reactions; type: biochemical; conditions: varying concentrations
T4 construct: made in house; host or cells: HEK293T (transient transfection, anti-Flag purification, SEC)
T4 sequence (Q7Z6Z7 whole entry): as above
Method: as §1

other HECT domains = test system: other HECT domains; design: method as in PMID 25253726; conditions: in vitro; cited from earlier work
[5] = test system: HUWE1 substrates, such as MCL1; design: method as in PMID 25253726; conditions: MCL1 upon DNA damage induction; cited from earlier work

| SMILES | Inhibition of HUWE1^HECT-driven ubiquitination (HUWE1^HECT [1]) | Compound ubiquitination by HUWE1^HECT (SEC, intact protein MS) (HUWE1^HECT [2]; 20 μM compound) | Inhibitor ubiquitination activity of HUWE1^HECT compared with other HECT domains (HUWE1^HECT [2]) | Compound ubiquitination by other HECT domains [3] | Inhibition of HUWE1^FL protein ubiquitination activity (E3 autoubiquitination, free Ub chain formation) (HUWE1^FL) | Inhibition of HUWE1^FL-driven MCL1 ubiquitination [4] | IC50 (other HECT domains) [µM] | Stabilization of HUWE1 substrates [5] | Compound ubiquitination by HUWE1^HECT (SEC) (HUWE1^HECT [2]; 20 μM compound, UbΔGG (residues 1–74) instead of WT Ub) |
| --- | --- | --- | --- | --- | --- | --- | --- | --- | --- |
| Cc1c(C(=O)Nc2ccc(CN)cc2)ncnc1N1CCC(C#N)(c2ccccc2)CC1 [BI8622] | inhibit ubiquitination dose-dependently in the low-micromolar concentration range | assigned to the respective monoubiquitinated compound by intact protein MS | substantially higher activity for HUWE1^HECT than for the other HECT domains | certain compound-directed activities were detected for all tested HECT domains | inhibit the protein ubiquitination activity of the ligase in a dose-dependent manner | inhibit the protein ubiquitination activity of the ligase in a dose-dependent manner | > 50 | stabilize individual HUWE1 substrates under certain conditions, such as MCL1 upon DNA damage induction | – |
| NCc1cccc(CNc2ncnc3c(N4CCN(Cc5ccccc5)CC4)ncnc23)c1 [BI8626] | inhibit ubiquitination dose-dependently in the low-micromolar concentration range | assigned to the respective monoubiquitinated compound by intact protein MS | substantially higher activity for HUWE1^HECT than for the other HECT domains | certain compound-directed activities were detected for all tested HECT domains | inhibit the protein ubiquitination activity of the ligase in a dose-dependent manner | inhibit the protein ubiquitination activity of the ligase in a dose-dependent manner | > 50 | stabilize individual HUWE1 substrates under certain conditions, such as MCL1 upon DNA damage induction | No compound ubiquitination occurred |
